Measurements from patent publication US10316008B2, “KCNQ potassium channel agonist, and preparation method therefor and use thereof” (SHANGHAI INSTITUTE OF MATERIA MEDICA, CHINESE ACADEMY OF …, priority 2014, dated 2019).
Where “and” joins values, the source holds several entries; their conditions need not be identical. Identical values can stand only once. Counter-ions that a name gives are not always drawn. Like-named read-outs stand apart in the source and are kept apart here.

Legend:
[1] = Pharmacokinetics and distribution in brain tissue in rats; assay type: in vivo, Sprague Dawley rats; conditions: SD rats; for Vd: read-out: VdSS
Description: After K43 was administered to Sprague Dawley rats via intravenous injection or oral administration, blood sample and brain tissue were collected at different time points. the concentration of K43 in plasma and brain of rats after administration of the compounds was analyzed by LC-MS/MS and used to calculate the pharmacokinetic parameters, evaluating the oral bioavailability and distribution in brain tissue of K43 in rats.
24 SD rats, which were provided by SHANGHAI SLAC LABORATORY ANIMAL CO. LTD., were used to perform the experiments according to the following table.
About 0.15 mL of blood was collected through orbit per animal every time, and EDTAK2 was used for anticoagulation. For IV group, the time points for collection were before administration (0 hr), and 5 min, 15 min, 30 min, 1 h, 2 h, 4 h, 6 h, 8 h and 24 h after administration; and for PO group, the time points for collection were before administration (0 hr), 15 min, 30 min, 1 h, 2 h, 4 h, 6 h, 8 h and 24 h after administration. The time points for collecting brain tissue were 0.25, 0.5, 1, 2, 4, 6 and 24 h. The collected blood samples were placed on icen, and plasma was centrifuged within 1 h (centrifugal condition: 12000 rpm, 2 min, 4° C.). The collected plasma was cryopreserved in a −20° C. refrigerator before analysis.
Pharmacokinetic parameters after administration were calculated according to the obtained data of plasma concentration using the non-compartmental model of WinNonlin V6.3.

[2] = Rotarod experiment, motor coordination ability (acute neurotoxicity); assay type: in vivo, KM mice; conditions: both sexes, KM, mouse, in vivo; mice, oral perfusion, Rotarod 30 mins after administration; read-out: TD50 (50% acute neurotoxicity dose)
Description: YLS-4C Rotarod system was used in the experiment, wherein the diameter of the rod was 3 cm and the rotate speed was set at 6 rpm. Healthy KM mice (SPF level) were selected, wherein male and female were equal, the body weight was 18 to 22 g. One day before experiment, the mice were place on the rotarod for training and screening. The tail tip of mice was held to make them creep on the rotarod during the training. […] The mice that jumped on the rotarod or griped the rotarod were weed out. In addition, three time periods were set with 1 min for each. […] The qualified mice were randomly caged according to the gender, and allowed to eat and drink freely.
On the day of the experiment, each compound to be tested was freshly formulated by the same method as described in MES experiment. If the compound was not sufficiently suspended, the suspension was further mixed by ultrasonication for 20 min so as to make the compound sufficiently suspended. […] 30 mins after administration, Rotarod experiment was performed and the experiment parameters were the same as the above. The number of mice that fell off from the rorarod was recorded, and the influence of each compound on motor coordination ability of mice was analyzed. The curve for dose of each compound verse motor deficit (percentage) of mice for each compound was obtained according to the analysis of Graphpad Prism 5 software and was shown in FIG. 4.

KCNQ potassium channel = test: Whole-cell voltage-clamp recording in CHO-K1 cells transfected with KCNQ plasmid; assay type: cell-based; conditions: for I/I0: current enhancement factor, −10 mV testing voltage, compound concentration 10 μM, >1 activating, <1 inhibiting; for ΔV1/2: shift of V1/2, negative sign = left-ward shift of current activation curve, compound 10 μM, CHO-K1 cells
Description: The culture medium for Chinese hamster oocytes (CHO-K1) (Culture Collection of Chinese Academy of Sciences): 50/50 DMEM/F-12 (Cellgro, Manassas, Va.), added with 10% fetal bovine serum (FBS) (Gibco, Australia) and 2 mM L-glutamic acid (Invitrogen). […] Lipofectamine 2000™ agent (Invitrogen) was used for Transfection according to the protocol thereof. GFP (green fluorescent protein) was cotransfected to be used as a indication of successful converting into KCNQ plasmid.
Whole-cell voltage-clamp recording was performed on an Axopatch-200B amplifier (Molecular Devices, Sunnyvale, Calif.) at room temperature. The electrode was made by drawing borosilicate glass capillary (World Precision Instruments, Sarasota, Fla.). The electric resistance of the electrode filled with an intracellular fluid is 3 to 5 MΩ. […] During the recording, an extracellular fluid was continuously perfused by using a BPS perfusion system (ALA Scientific Instruments, Westburg, N.Y.). The composition of the extracellular fluid (1 L) was as follows: 140 mM NaCl(Sigma), 5 mM KCl(Sigma), 2 mM CaCl2(Sigma), 1.5 mM MgCl2(Sigma), 10 mM HEPES(Sigma) and 10 mM glucose(Sigma) (pH was adjusted to 7.4 with NaOH). […] Series resistors compensate 60 to 80%. Up to date, multivoltage scheme was generally adopted, wherein the clamp voltage was set at −80 mV, stimulating voltage was a gradient voltage from −90 mV to 60 mV with interval of 10 mV, and the stimulating time for each voltage was 2000 ms.
V1/2 is the voltage at which 50% of cells were activated, ΔV1/2 is the shift amount of V1/2, negative sign (−) represents a left-ward shift of the current activation curve. I/I0 represents the current enhancement factor, wherein, I0 is the maximum induced current produced under stimulation of −10 mV testing voltage after administrating cells with blank extracellular fluid, I is the maximum induced current produced under stimulation of −10 mV testing voltage after administrating the drug (the compound concentration was 10 μM), I/I0>1 represents activating activity, and I/I0<1 represents inhibiting activity. N is the number of tested cells. NT represents non-tested.

[3] = IV 0.500 mg/kg, plasma, individual animals IV-1 to IV-3, 0.5 mg/kg
[4] = PO 5.00 mg/kg, plasma, individual animals PO-4 to PO-6, 5 mg/kg
[5] = Sprague-Dawley, rat, plasma, iv, 0.5 mg/kg, IV 0.500 mg/kg, individual animals IV-1 to IV-3
[6] = Sprague-Dawley, rat, plasma, iv, 0.5 mg/kg, IV 0.500 mg/kg, mean

## C#CCN(Cc1ccc(F)cc1)c1cc(C)c(NC(=O)OC)c(C)c1 [Compound K43, methyl 4-(N-parafluorobenzyl-N-propargyl-amino)-2,6-dimethylphenylaminoformate]
[1]; [3]
  AUC0-t: 232 ng·h/mL and 239 ng·h/mL
  AUC(0-inf): 236 ng·h/mL and 242 ng·h/mL
  AUMC0-inf: 304 h · h · ng · mL^−1 and 295 h · h · ng · mL^−1 and 293 h · h · ng · mL^−1
  AUMC0-t: 287 h · h · ng · mL^−1 and 258 h · h · ng · mL^−1 and 270 h · h · ng · mL^−1
  CL: 35.3 mL/min/kg and 34.5 mL/min/kg
  Kcl: 0.552 h⁻¹ and 0.427 h⁻¹ and 0.516 h⁻¹
  MRTIV: 1.38 h and 1.25 h and 1.21 h
  VdSS: 2.65 L/kg and 2.51 L/kg
  t1/2: 1.62 h and 1.34 h
[1]; IV 0.500 mg/kg, plasma, mean
  AUMC0-inf: 297 h · h · ng · mL^−1
  AUMC0-t: 271 h · h · ng · mL^−1
  Kcl: 0.498 h⁻¹
  MRTIV: 1.28 h
[1]; PO 5.00 mg/kg, brain tissue
  AUC(0-inf): 4314 ng·h/g
  AUMC0-inf: 85535 h · h · ng · g^−1
  AUMC0-t: 25306 h · h · ng · g^−1
  Kel: 0.0542 h⁻¹
  MRTPO: 19.8 h
[1]; PO 5.00 mg/kg, brain tissue (AUC0→24 hr)
  AUC0-t: 2895 ng·h/g
[1]; PO 5.00 mg/kg, individual animals PO-4 to PO-6, 5 mg/kg
  F: 20.3% and 59.9% and 16.5%
[1]; [4]
  AUC0-t: 467 ng·h/mL and 1379 ng·h/mL and 379 ng·h/mL
  AUC(0-inf): 471 ng·h/mL and 1605 ng·h/mL and 407 ng·h/mL
  AUMC0-inf: 2497 h · h · ng · mL^−1 and 18103 h · h · ng · mL^−1 and 1256 h · h · ng · mL^−1
  AUMC0-t: 2360 h · h · ng · mL^−1 and 10030 h · h · ng · mL^−1 and 957 h · h · ng · mL^−1
  Cmax: 62.7 ng/mL and 138 ng/mL and 107 ng/mL
  Kcl: 0.186 h⁻¹ and 0.0857 h⁻¹ and 0.371 h⁻¹
  MRTPO: 5.30 h and 11.3 h and 3.09 h
  Tmax: 4.00 h and 1.00 h
  t1/2: 3.74 h and 8.09 h and 1.87 h
[1]; PO 5.00 mg/kg, plasma, mean
  AUMC0-inf: 7285 h · h · ng · mL^−1
  AUMC0-t: 4449 h · h · ng · mL^−1
  Kcl: 0.214 h⁻¹
  MRTPO: 6.55 h
[1]; Sprague-Dawley, rat, brain, po, 5 mg/kg, PO 5.00 mg/kg, brain tissue
  half-life: 12.8 h
[1]; Sprague-Dawley, rat, brain, po, 5 mg/kg, PO 5.00 mg/kg, brain tissue, read-out: Cmax
  Cmax: 366 ng/g
[1]; Sprague-Dawley, rat, brain, po, 5 mg/kg, PO 5.00 mg/kg, brain tissue, read-out: tmax
  Tmax: 2 h
[1]; [5]
  clearance: 37.8 mL/min/kg
  half-life: 1.26 h
[1]; [6]
  clearance: 35.8 ± 1.7 mL/min/kg
  half-life: 1.41 ± 0.191 h
[1]; Sprague-Dawley, rat, plasma, iv, 0.5 mg/kg, IV 0.500 mg/kg, plasma, individual animals IV-1 to IV-3, read-out: AUC0-inf
  AUC(0-inf): 221 ng·h/mL
[1]; Sprague-Dawley, rat, plasma, iv, 0.5 mg/kg, IV 0.500 mg/kg, plasma, individual animals IV-1 to IV-3, read-out: AUC0-t
  AUC0-t: 219 ng·h/mL
[1]; Sprague-Dawley, rat, plasma, iv, 0.5 mg/kg, IV 0.500 mg/kg, plasma, individual animals IV-1 to IV-3
  Vd: 3.13 L/kg
[1]; Sprague-Dawley, rat, plasma, iv, 0.5 mg/kg, IV 0.500 mg/kg, plasma, mean, read-out: AUC0-inf
  AUC(0-inf): 233 ng·h/mL
[1]; Sprague-Dawley, rat, plasma, iv, 0.5 mg/kg, IV 0.500 mg/kg, plasma, mean, read-out: AUC0-t
  AUC0-t: 230 ng·h/mL
[1]; Sprague-Dawley, rat, plasma, iv, 0.5 mg/kg, IV 0.500 mg/kg, plasma, mean
  Vd: 2.76 ± 0.324 L/kg
[1]; Sprague-Dawley, rat, plasma, po, 5 mg/kg, PO 5.00 mg/kg, mean
  half-life: 4.56 h
[1]; Sprague-Dawley, rat, plasma, po, 5 mg/kg, PO 5.00 mg/kg, plasma, mean (AUC0→24 hr), read-out: AUC0-t
  AUC0-t: 742 ± 554 ng·h/mL
[1]; Sprague-Dawley, rat, plasma, po, 5 mg/kg, PO 5.00 mg/kg, plasma, mean, read-out: AUC0-inf
  AUC(0-inf): 828 ng·h/mL
[1]; Sprague-Dawley, rat, plasma, po, 5 mg/kg, PO 5.00 mg/kg, plasma, mean, read-out: Cmax
  Cmax: 103 ± 37.8 ng/mL
[1]; Sprague-Dawley, rat, plasma, po, 5 mg/kg, PO 5.00 mg/kg, plasma, mean, read-out: tmax
  Tmax: 2.33 ± 1.53 h
[1]; Sprague-Dawley, rat, plasma, PO 5.00 mg/kg, mean, read-out: F (oral bioavailability)
  bioavailability: 32.2 ± 24.1%

## C#CCN(Cc1ccc(F)cc1)c1ccc(NC(=O)OC)c(C)c1 [K41•HCl]
[2]
  TD50 at 30 min: 103 mg/kg
KCNQ potassium channel
  I/I0: 4.8 ± 0.73
  ΔV1/2: −23.28 ± 1.37 mV

## C#CCN(Cc1ccc(F)cc1)c1cc(C)c(NC(=O)OC)c(C)c1.Cl [K43•HCl, methyl 4-(N-parafluorobenzyl-N-propargyl-amino)-2,6-dimethylphenylaminoformate hydrochloride]
[2]
  TD50 at 30 min: 152 mg/kg
KCNQ potassium channel
  I/I0: 4.75 ± 1.29
  ΔV1/2: −38.52 ± 1.67 mV
